Reference: patent US10131690B2, “C6S specific transporter molecules” (PHI PHARMA SA, priority 2014, dated 2018)
Where a SMILES comes first, the peptide text is derived from it. Where no end group is shown, it is not given here. [ ]: non-standard residue; d: D form. 3'AdT = not defined here

Legend:
[1] = tested on: chondroitin-6-sulfate (C6S); test: modified ELISA, binding of peptides to plate-coated C6S; conditions: plates coated with 1 mg/ml C6S; 1 mg/ml peptide, 1 hour, room temperature; FIG. 5, 6A, 6B
Protocol: (§1) The binding of the nine-mer peptides of the invention to C6S as predicted by the models, in particular, as compared to the binding to other proteoglycans was tested using a modified ELISA protocol. ELISA plates were coated overnight with 1 mg/ml of heparin sulfate (HS), chondroitin-4-sulfate (C4S), chondroitin-6-sulfate (C6S) or keratin sulfate (KS) in PBS. The wells were then washed with PBS and incubated for 1 hour at room temperature with 1 mg/ml of an exemplary peptide of the invention having the sequence RYKvFIKYRh (“RYK-C6S”; SEQ ID NO:7) or a standard TAT peptide. The plates were then thoroughly washed with PBS and subsequently photographed with a LUMASCOPE™ luminescent microscope. Images were then quantified using the ImageJ software (FIG. 5).
The same modified ELISA protocol was used to examine the impact on the specific binding to C6S by modifying the freely-selectable positions 2, 4, 6, 8 and (5 or 7).
(§2) The impact of sequence variation on specific binding was also investigated with select peptides using the above described modified ELISA.

[2] = stability in fetal calf serum (estimation of in vivo stability); assay type: in vitro ADME; conditions: 37° C.; for degradation in fetal calf serum: 6 hr
Protocol: The stability of peptides of the invention was estimated by mixing the peptides with fetal calf serum and incubating at 37° C. for 6 hr. Samples were tested at both 0 and 6 hours.

[3] = tested on: MDCK cells; test: viability of MDCK cell cultures by trypan blue exclusion; assay type: cell-based; conditions: 96 hour incubation, 0.5 μM to 10 μM, FIG. 9
Protocol: The activity of peptides of the invention as targeting moieties was tested in vitro in preliminary studies using cells lines expressing C6S. The nucleoside analog 3′ amino deoxythymidine (3′AdT) was conjugated to the amino-terminus of the peptide “RYK” (RYKvFIKYRh (SEQ ID NO:8)) using a single D-Glu residue (3′AdT-e-RYK).
Confluent cultures of MDCK were passaged at 1/20 dilution and exponentionally growing cells were incubated for 96 hours with concentrations of the nucleoside analog conjugates ranging from 0.5 μM to 10 μM. Viability was subsequently assessed using trypan blue exclusion.

[4] = tested on: heparan sulfate (HS), chondroitin-4-sulfate (C4S), keratin sulfate (KS), HA; test: modified ELISA, binding to C6S compared with other proteoglycans; conditions: KS (FIG. 5), HS and HA (FIG. 6B)
Protocol: as §1, §2

RRRRRRRRR [pure arginine 9-mer]
binding to C6S [1]: increases in binding that were likely non-selective

CC[C@H](C)[C@H](NC(=O)[C@H](Cc1ccccc1)NC(=O)[C@H](NC(=O)[C@H](CCCCN)NC(=O)[C@H](Cc1ccc(O)cc1)NC(=O)[C@@H](N)CCCNC(=N)N)C(C)C)C(=O)N[C@@H](CCCCN)C(=O)N[C@@H](Cc1ccc(O)cc1)C(=O)N[C@@H](CCCNC(=N)N)C(=O)N[C@H](Cc1c[nH]cn1)C(=O)O [RYK-C6S, RYKvFIKYRh] (H-RYK[dV]FIKYR[dH]-OH; N-terminus and C-terminus assumed)
degradation in fetal calf serum [2]: no degradation | remaining at 6 h ([2]; fetal calf serum, 6 hours): 100%

D-linked conjugate: 3′AdT conjugated to the amino-terminus of the peptide RYK (RYKvFIKYRh) using a single D-Glu residue ({3'AdT}-[dE]RYK[dV]FIKYR[dH]; reading uncertain; also: printed as RYKvFIKYRh)
concentration with substantial effects on viability [3]: ≥ 0.5 µM

RKKRRQRR (Artificial TAT peptide control) [standard TAT peptide]
binding to C6S [1]: increases in binding that were likely non-selective

RGKPRFYQR
selectivity of binding for C6S over other proteoglycans [4]: either eliminated binding activity to any proteoglycan or eliminated the specificity to C6S

RYKvFIKPRh (RYK[dV]FIKPR[dH]) [control peptide with proline at position 8]
binding to C6S [1]: eliminated binding activity

RYFvRIKYR (RYF[dV]RIKYR) [control peptide, replacement of Lys3 with a Phe]
binding to C6S [1]: eliminated binding to C6S

N=C(N)NCCC[C@H](NC(=O)[C@H](Cc1ccc(O)cc1)NC(=O)[C@H](CCCCN)NC(=O)[C@H](Cc1c[nH]c2ccccc12)NC(=O)[C@H](CO)NC(=O)CNC(=O)[C@H](CCCCN)NC(=O)[C@H](Cc1ccccc1)NC(=O)[C@@H](N)CCCNC(=N)N)C(=O)O [RFKGSWKYR] (H-RFKGSWKYR-OH; N-terminus and C-terminus assumed)
degradation in fetal calf serum [2]: completely degraded
